ChEMBL document CHEMBL5537135, “Novel antimicrobial peptides modified with fluorinated sulfono-γ-AA having high stability and targeting multidrug-resistant bacteria infections” (Eur J Med Chem, 2024)
Calls of active or inactive are those of the source. No cut-off for these calls is given here. Numbered stars: 1 amine (or outer) side, 2 acyl side, 3 side chain; on linkers, the order of the positions; unused ones are H or OH. Square brackets hold non-standard residues; d marks the D form. Peptide text beside a SMILES is read from it. * marks the point of attachment. X3 = CC(C)C[C@@H](CN(CC(N)=O)S(=O)(=O)c1ccc(C(F)(F)F)cc1)N*; X2 = CC(C)C[C@H](N)CN(CC(=O)[*:2])[*:1]; X1 = O=S(=O)(c1ccc(C(F)(F)F)cc1)*

How the values were obtained:
Staphylococcus aureus [1] = experiment: Synergistic antibacterial activity against Staphylococcus aureus ATCC 33591 assessed as fractional inhibitory concentration index in presence of polymyxin B by checkerboard assay; format: functional
Pseudomonas aeruginosa [2] = experiment: Synergistic antibacterial activity against multidrug-resistant Pseudomonas aeruginosa 124 assessed as fractional inhibitory concentration index in presence of polymyxin B by checkerboard assay; format: functional
Pseudomonas aeruginosa [3] = experiment: Synergistic antibacterial activity against multidrug-resistant Pseudomonas aeruginosa 124 assessed as fractional inhibitory concentration index in presence of ceftazidime by checkerboard assay; format: functional
Staphylococcus aureus [4] = experiment: Synergistic antibacterial activity against methicillin-resistant Staphylococcus aureus S5 assessed as fractional inhibitory concentration index in presence of polymyxin B by checkerboard assay; format: functional
Staphylococcus aureus [5] = experiment: Antibacterial activity against […] Staphylococcus aureus ATCC 33591; format: functional, organism-based
Pseudomonas aeruginosa [6] = experiment: Additive antibacterial activity against multidrug-resistant Pseudomonas aeruginosa 124 assessed as fractional inhibitory concentration index in presence of polymyxin B by checkerboard assay; format: functional
Pseudomonas aeruginosa [7] = experiment: Additive antibacterial activity against multidrug-resistant Pseudomonas aeruginosa 124 assessed as fractional inhibitory concentration index in presence of ceftazidime by checkerboard assay; format: functional
Cell membrane [8] = experiment: Induction of membrane disruption in Pseudomonas aeruginosa ATCC 27853 assessed as membrane shrinkage at 2 to 4 times MIC incubated for 24 hrs by SEM analysis; format: cell membranes
Cell membrane [9] = experiment: Induction of membrane disruption in Pseudomonas aeruginosa ATCC 27853 assessed as membrane blebbing at 2 to 4 times MIC incubated for 24 hrs by SEM analysis; format: cell membranes
Cell membrane [10] = experiment: Induction of membrane disruption in Staphylococcus aureus ATCC 33591 assessed as membrane shrinkage at 2 to 4 times MIC incubated for 24 hrs by SEM analysis; format: cell membranes
Cell membrane [11] = experiment: Induction of membrane disruption in Staphylococcus aureus ATCC 33591 assessed as membrane lysis at 2 to 4 times MIC incubated for 24 hrs by SEM analysis; format: cell membranes
[12] = Toxicity in mouse at 40 mg/kg, sc measured for 5 to 1440 mins; format: organism-based; conditions: in vivo, time 5-1440 min
[13] = Toxicity in mouse assessed as skin injury at 40 mg/kg, sc measured for 5 to 1440 mins by H and E staining analysis; format: organism-based; conditions: in vivo, time 5-1440 min
[14] = Toxicity in mouse assessed as heart lesion at 20 mg/kg, ip measured for 30 to 60 mins by H and E staining based analysis; format: organism-based; conditions: in vivo, time 30-60 min
[15] = Toxicity in mouse assessed as lung lesion at 20 mg/kg, ip measured for 30 to 60 mins by H and E staining based analysis; format: organism-based; conditions: in vivo, time 30-60 min
Pseudomonas aeruginosa [16] = experiment: Antibacterial activity against Pseudomonas aeruginosa ATCC 27853 infected in C57BL/6 mouse pneumonia model assessed as reduction in bacterial load in lung at 10 mg/kg, ip administered for 1 to 48 hrs and measured after 3 days; format: functional, organism-based; conditions: time 1-120 hrs
Pseudomonas aeruginosa [17] = experiment: Antibacterial activity against Pseudomonas aeruginosa ATCC 27853 infected in C57BL/6 mouse pneumonia model assessed as decrease in TNF-alpha level in lung at 2.5 to 10 mg/kg, ip administered for 1 to 48 hrs and measured after 3 days; format: functional, organism-based; conditions: dose 2.5-10 mg/kg, time 1-120 hrs
Pseudomonas aeruginosa [18] = experiment: Antibacterial activity against Pseudomonas aeruginosa ATCC 27853 infected in C57BL/6 mouse pneumonia model assessed as decrease in IL-6 level in lung at 2.5 to 10 mg/kg, ip administered for 1 to 48 hrs and measured after 3 days; format: functional, organism-based; conditions: dose 2.5-10 mg/kg, time 1-120 hrs
Pseudomonas aeruginosa [19] = experiment: Antibacterial activity against Pseudomonas aeruginosa ATCC 27853 infected in C57BL/6 mouse pneumonia model assessed as decrease in IL-1beta level in lung at 2.5 to 10 mg/kg, ip administered for 1 to 48 hrs and measured after 3 days; format: functional, organism-based; conditions: dose 2.5-10 mg/kg, time 1-120 hrs
Staphylococcus aureus [20] = experiment: Antibacterial activity against methicillin-resistant Staphylococcus aureus ATCC 33591 infected in full-thickness wound BALB/c mouse model at 0.25 to 1 mg/kg, ip administered for 1 to 48 hrs and measured after 3 days; format: functional, organism-based; conditions: dose 0.25-1 mg/kg, time 1-120 hrs
Staphylococcus aureus [21] = experiment: Antibacterial activity against methicillin-resistant Staphylococcus aureus ATCC 33591 infected in full-thickness wound BALB/c mouse model assessed as reduction in TNF-alpha level in skin at 0.25 to 1 mg/kg, ip administered for 1 to 48 hrs and measured after 3 days; format: functional, organism-based; conditions: dose 0.25-1 mg/kg, time 1-120 hrs
Staphylococcus aureus [22] = experiment: Antibacterial activity against methicillin-resistant Staphylococcus aureus ATCC 33591 infected in full-thickness wound BALB/c mouse model assessed as reduction in IL-6 level in skin at 0.25 to 1 mg/kg, ip administered for 1 to 48 hrs and measured after 3 days; format: functional, organism-based; conditions: dose 0.25-1 mg/kg, time 1-120 hrs

SMILES: CC(C)C[C@@H](CN(CC(N)=O)S(=O)(=O)c1ccc(C(F)(F)F)cc1)NC(=O)[C@H](CCCCN)NC(=O)[C@H](CCCCN)NC(=O)[C@H](CC(C)C)NC(=O)[C@H](CC(C)C)NC(=O)[C@H](CCCCN)NC(=O)[C@H](CC(C)C)NC(=O)[C@@H](N)Cc1ccccc1 (H-FLKLLKK-X3)
- fractional inhibitory concentration index (FICI) (Staphylococcus aureus [1]): 0.5
- fractional inhibitory concentration index (FICI) (Pseudomonas aeruginosa [2]): 0.75
- fractional inhibitory concentration index (FICI) (Pseudomonas aeruginosa [3]): 0.75
- fractional inhibitory concentration index (FICI) (Staphylococcus aureus [4]): 0.75

SMILES: CC(C)C[C@H](N)CN(CC(=O)N[C@@H](CCCCN)C(=O)N[C@@H](CC(C)C)C(=O)N[C@@H](CC(C)C)C(=O)N[C@@H](CCCCN)C(=O)N[C@@H](CCCCN)C(=O)N[C@@H](CC(C)C)C(=O)N[C@@H](CC(C)C)C(N)=O)S(=O)(=O)c1ccc(C(F)(F)F)cc1 (X1-[X2]KLLKKLL-NH2)
- Activity (Staphylococcus aureus [5]): Active
- fractional inhibitory concentration index (FICI) (Pseudomonas aeruginosa [6]): 0.5
- fractional inhibitory concentration index (FICI) (Pseudomonas aeruginosa [7]): 1
- Activity (Cell membrane [8]): Active
- Activity (Cell membrane [9]): Active
- Activity (Cell membrane [10]): Active
- Activity (Cell membrane [11]): Active
- Activity [12]: Non-Toxic
- Activity [13]: Non-Toxic
- Activity [14]: Non-Toxic
- Activity [15]: Non-Toxic
- Activity (Pseudomonas aeruginosa [16]): Active
- Activity (Pseudomonas aeruginosa [17]): Active
- Activity (Pseudomonas aeruginosa [18]): Active
- Activity (Pseudomonas aeruginosa [19]): Active
- Activity (Staphylococcus aureus [20]): Active
- Activity (Staphylococcus aureus [21]): Active
- Activity (Staphylococcus aureus [22]): Active
